The subject of data set [1] is mouse neurospheres. Kind of data set: Dissociation of mouse neurospheres using different alkaline solutions; trypan blue exclusion, serial subculture. As to conditions: for Average Viable Cell Conc.: base in PPRF-m4, neutralized with HCl; for Average Viable Cell Conc. / Average Cell Viability: n=3; for Fold Increase in number of viable cells: inoculated at 0.75×10^5 cells/mL; for Average Cell Viability: trypan blue exclusion. The protocol: (§1) Table 2. […] Following dissociation, the pH was reduced by using neutralizing solution generated using HCl.
(§2) In order to counteract the pH effect of the alkaline dissociation solutions on the cells, an appropriate quantity of acidic medium was added.
(§3) The supernatant was completely removed. […] A volume of 200 μL was added to those samples dissociated with sodium hydroxide, potassium hydroxide or sodium phosphate tribasic dodecahydrate. A volume of 300 μL was added to those samples dissociated using ammonium hydroxide. […] Following the addition of the acidic medium, the cell sample was gently pipetted 5 more times.

Data set [2] deals with mouse embryonic stem cells. Kind of data set: Detachment and dissociation of mouse embryonic stem cells using different bases in PBS with 10 mM EDTA; trypan blue exclusion. As to conditions: for Average Viable Cell Conc.: base in 1×PBS with 10 mM EDTA; for Average Viable Cell Conc. / Average Cell Viability: n=3; for Fold Increase in number of viable cells: inoculated at 3.13×10^4 cells/mL; for Average Cell Viability: trypan blue exclusion. How it is done: (§4) A total of five different dissociation solutions were tested for their ability to detach and dissociate mouse embryonic stem cells. Each solution was made by adding a different base to a basal solution (1×PBS solution containing 10 mM EDTA).
(§5) A volume of 2.0 mL of the appropriate dissociation solution was then added to each 25 cm^2 tissue culture flask, and the flasks were placed in an incubator at 37° C. The flasks were rocked intermittently over a period of 22 minutes after which gentle pipetting was used to break up any remaining clumps of cells. The cell suspension was collected and added to a sterile 15 mL tube containing 5.0 mL of medium and then centrifuged for 5 minutes at 1000 rpm. […] After centrifugation, the supernatant was discarded and the pellet was resuspended in 1.0 mL of medium.

The nature of data set [3]: in vitro. As to conditions: mouse, Average Cell Viability.
Procedure: (§6) The viable cell concentration, viabilities, and fold increase in number of viable cells for mouse neurospheres exposed to different acidic neutralizing solutions following chemical dissociation. The aggregates were dissociated into a single cell suspension using an NaOH based dissociation solution. Acidic neutralizing solutions generated using a variety of acids (listed in table) were then added to counteract the high pH of the dissociation medium. Cell counts and viabilities were determined by trypan blue exclusion. Cells were serially subcultured for 4 passages in 25 cm^2 tissue culture flasks containing 5 mL of PPRF-m4 medium. The flasks were maintained in a humidified 37° C. incubator containing 5% CO2 (Average values, n=3).
(§7) All of the experiments conducted to test the effect of different neutralizing solutions employed an NaOH based dissociation medium to dissociate the cells.
(§8) Passage 3 mouse neurospheres originally procured from the striata of 14 day old embryonic mice were thawed and passaged twice (passage 5) in PPRF-m4 medium. These neuropsheres samples were previously dissociated by mechanical dissociation at each passage prior to being used for the experiments described here. Passage 5 mouse neurospheres were isolated and centrifuged (10 minutes, 140 g) to form a cell pellet in a 15 mL centrifuge tube. The supernatant was completely removed. The aggregates were then resuspended in 200 μL of fresh PPRF-m4 medium at room temperature by pipetting the cell pellet 5 times. 200 μL of an NaOH based alkaline dissociation medium was then added to the tube, and a stopwatch was used to time the procedure for 7 minutes. After 2 minutes and 5 minutes had elapsed, the cells were gently pipetted 5 times. After 7 minutes had elapsed, 200 μL of an acidic neutralizing medium was added to the mixture to decrease the pH, and the sample was gently pipetted 5 more times. […] The cell concentration and viability of the resulting cell suspension was determined using trypan blue exclusion, and the single cells were inoculated at 7.5×10^5 cells/mL into 25 cm^2 tissue culture flasks to determine if the neutralizing solution inhibited the cells from proliferating (Table 3). The cells were subsequently serially subcultured using the same neutralizing solution to which they had previously been exposed.
Data set [4] deals with mouse neurospheres. Kind of data set: Different acidic neutralizing solutions after NaOH dissociation of mouse neurospheres; trypan blue exclusion, serial subculture. Particulars: for Average Viable Cell Conc.: NaOH dissociation, acid as neutralizing solution; for Average Viable Cell Conc. / Average Cell Viability: n=3; for Average Cell Viability: trypan blue exclusion.
Procedure: as §6, §7, §8
The nature of data set [5]: in vitro. Particulars: mouse, Average Cell Viability. How it is done: as §1, §2, §3
The source holds these as a separate data set.

Data set [6] in a line: in vitro. As to conditions: mouse, Average Cell Viability. How it is done: as §4, §5
This is another data set of the same source.

Here are results for 9 molecules from patent publication US7833785B2, “Method for chemical dissociation of cells from physical surfaces” (priority 2004, dated 2010).

Counter-ions that a name gives are not always drawn.

In the case of `[K+].[OH-]` [KOH, potassium hydroxide], the “Average Viable Cell Conc.” value in data set [1] (passage 1) was 7.1 10^5 cells/mL; in data set [1] (passage 2), 8.7 10^5 cells/mL; in data set [1] (passage 3), 13.9 10^5 cells/mL; in data set [1] (passage 4), 19.0 10^5 cells/mL; in data set [2] (passage 1), 4.3 10^5 cells/mL; in data set [2] (passage 2), 1.8 10^5 cells/mL. Also, the “Average Viable Cell Conc.” value is on record as 3.2 10^5 cells/mL in data set [2] (passage 3) and 4.4 10^5 cells/mL in data set [2] (passage 4). Also, the “Fold Increase in number of viable cells” value in data set [1] (passage 1) was 9.4; in data set [1] (passage 2), 12; in data set [1] (passage 3) it was 18; in data set [1] (passage 4), 25; in data set [2] (passage 1), 14; in data set [2] (passage 2), 6. For the same molecule, the “Fold Increase in number of viable cells” value in data set [2] (passage 3) is listed as 10; in data set [2] (passage 4) it was 14. The “Average Cell Viability” value in data set [1] (passage 1) worked out at 81%; in data set [1] (passage 2), 85%; in data set [1] (passage 3) it was 9%; in data set [1] (passage 4), 93%; in data set [2] (passage 1) it was 89%; in data set [2] (passage 2), 86%. For the same molecule, the “Average Cell Viability” value in data set [2] (passage 3) and in data set [2] (passage 4) was 81% throughout.
In the case of `O.O.O.O.O.O.O.O.O.O.O.O.O=P([O-])([O-])[O-].[Na+].[Na+].[Na+]` [Sodium Phosphate, sodium phosphate tribasic dodecahydrate], the “Average Viable Cell Conc.” value in data set [1] (passage 1) is recorded as 11.5 10^5 cells/mL; in data set [1] (passage 2), 7.3 10^5 cells/mL; in data set [1] (passage 3), 13.9 10^5 cells/mL; in data set [1] (passage 4), 10.2 10^5 cells/mL; in data set [2] (passage 1) it was 4.2 10^5 cells/mL; in data set [2] (passage 2) it was 2.0 10^5 cells/mL. Moreover, the “Average Viable Cell Conc.” value in data set [2] (passage 3) is recorded as 4.1 10^5 cells/mL; in data set [2] (passage 4), 6.7 10^5 cells/mL. Also, the “Fold Increase in number of viable cells” value in data set [1] (passage 1) was found to be 15; in data set [1] (passage 2) it was 10; in data set [1] (passage 3), 18; in data set [1] (passage 4), 14; in data set [2] (passage 1) it was 14; in data set [2] (passage 2) it was 6. Further, the “Fold Increase in number of viable cells” value in data set [2] (passage 3) came to 13; in data set [2] (passage 4) it was 21. Also, the “Average Cell Viability” value in data set [1] (passage 1) was 87%; in data set [1] (passage 2), 89%; in data set [1] (passage 3), 89%; in data set [1] (passage 4), 93%; in data set [2] (passage 1) it was 88%; in data set [2] (passage 2), 91%. In addition, the entries for the “Average Cell Viability” value in data set [2] (passage 3) and in data set [2] (passage 4) were 87% and 84%, respectively.
For the molecule `[Na+].[OH-]` [NaOH, sodium hydroxide], the “Average Viable Cell Conc.” value in data set [1] (passage 1) is 8.7 10^5 cells/mL; in data set [1] (passage 2) it was 12.9 10^5 cells/mL; in data set [1] (passage 3), 8.8 10^5 cells/mL; in data set [1] (passage 4), 13.9 10^5 cells/mL; in data set [2] (passage 1) it was 3.6 10^5 cells/mL; in data set [2] (passage 2), 6.2 10^5 cells/mL. Also, the “Average Viable Cell Conc.” value in data set [2] (passage 3) is reported as 7.5 10^5 cells/mL; in data set [2] (passage 4), 5.7 10^5 cells/mL. Besides, the “Fold Increase in number of viable cells” value in data set [1] (passage 1) was 12; in data set [1] (passage 2), 17; in data set [1] (passage 3), 12; in data set [1] (passage 4) it was 18; in data set [2] (passage 1), 12; in data set [2] (passage 2) it was 20. The “Fold Increase in number of viable cells” value in data set [2] (passage 3) stood at 24; in data set [2] (passage 4), 18.
As for `O=P(O)(O)O` [Phosphoric Acid, phosphoric acid], in data set [3], the viability is 91%. In addition, the “Fold Increase in number of viable cells” value in data set [4] (passage 1) turned out to be 15; in data set [4] (passage 2), 23; in data set [4] (passage 3) it was 6; in data set [4] (passage 4), 16. For the same molecule, the “Average Viable Cell Conc.” value in data set [4] (passage 1) is 11.5 10^5 cells/mL; in data set [4] (passage 2), 17.3 10^5 cells/mL; in data set [4] (passage 3), 4.2 10^5 cells/mL; in data set [4] (passage 4) it was 11.8 10^5 cells/mL.
With `CC(=O)O` [Acetic Acid, acetic acid], the viability in data set [3] worked out at 91%. Also, the “Fold Increase in number of viable cells” value came out at 13 in data set [4] (passage 1), 20 in data set [4] (passage 2), 10 in data set [4] (passage 3) and 17 in data set [4] (passage 4). The “Average Viable Cell Conc.” value is on record as 9.6 10^5 cells/mL in data set [4] (passage 1), 14.3 10^5 cells/mL in data set [4] (passage 2), 7.2 10^5 cells/mL in data set [4] (passage 3) and 12.8 10^5 cells/mL in data set [4] (passage 4).
As for `O=S(=O)(O)O` [Sulfuric Acid, sulfuric acid], the viability in data set [3] worked out at 89%. The “Fold Increase in number of viable cells” value in data set [4] (passage 1) came to 14; in data set [4] (passage 2), 18; in data set [4] (passage 3), 8; in data set [4] (passage 4) it was 15. The “Average Viable Cell Conc.” value in data set [4] (passage 1) is 10.5 10^5 cells/mL; in data set [4] (passage 2), 13.1 10^5 cells/mL; in data set [4] (passage 3), 6.1 10^5 cells/mL; in data set [4] (passage 4), 11.3 10^5 cells/mL.
`N` [Ammonium Hydroxide, ammonium hydroxide]: the viability at 7 min, 23.8 mM in data set [5] amounted to 91%. The “Average Viable Cell Conc.” value is 6.2 10^5 cells/mL in data set [1] (passage 1); 8.4 10^5 cells/mL in data set [1] (passage 2); 10.5 10^5 cells/mL in data set [1] (passage 3); 9.1 10^5 cells/mL in data set [1] (passage 4); 4.1 10^5 cells/mL in data set [2] (passage 1); 1.4 10^5 cells/mL in data set [2] (passage 2). Besides, the results for the “Average Viable Cell Conc.” value in data set [2] (passage 3) and in data set [2] (passage 4) were 2.7 10^5 cells/mL and 5.1 10^5 cells/mL, respectively. Further, the “Fold Increase in number of viable cells” value in data set [1] (passage 1) is 8; in data set [1] (passage 2) it was 11; in data set [1] (passage 3), 14; in data set [1] (passage 4), 12; in data set [2] (passage 1), 13; in data set [2] (passage 2), 4. In addition, the “Fold Increase in number of viable cells” value is recorded as 8 in data set [2] (passage 3) and 16 in data set [2] (passage 4). In data set [6], this molecule had a viability at 22 min, 9.9 mM of 84%.
For the molecule `Cl` [HCl, hydrochloric acid], the “Fold Increase in number of viable cells” value in data set [4] (passage 1) was determined as 14; in data set [4] (passage 2), 17; in data set [4] (passage 3), 12; in data set [4] (passage 4) it was 14. In addition, the “Average Viable Cell Conc.” value in data set [4] (passage 1) is 10.9 10^5 cells/mL; in data set [4] (passage 2), 12.7 10^5 cells/mL; in data set [4] (passage 3), 9.0 10^5 cells/mL; in data set [4] (passage 4), 10.2 10^5 cells/mL. Besides, the “Average Cell Viability” value is reported as 91% in data set [4] (passage 1), 92% in data set [4] (passage 2), 92% in data set [4] (passage 3) and 89% in data set [4] (passage 4).
Take `O=C([O-])[O-].[Na+].[Na+]` [Sodium Carbonate, sodium carbonate]: the “Average Viable Cell Conc.” value in data set [1] (passage 1) is recorded as 7.7 10^5 cells/mL; in data set [1] (passage 2), 11.4 10^5 cells/mL; in data set [1] (passage 3), 11.1 10^5 cells/mL; in data set [1] (passage 4), 8.7 10^5 cells/mL; in data set [2] (passage 1), 3.7 10^5 cells/mL; in data set [2] (passage 2), 3.6 10^5 cells/mL. The figures for the “Average Viable Cell Conc.” value in data set [2] (passage 3) and in data set [2] (passage 4) were 7.7 10^5 cells/mL and 6.8 10^5 cells/mL, respectively.
